Data on five molecules can be found in PMC11612460, “Development of a novel gut microphysiological system that facilitates assessment of drug absorption kinetics in gut” (Scientific Reports, 2024).

Each structure is given as a SMILES string.

Data set [1] has as its system hiSIECs monolayers in gut MPS/Fluid3D-X. The data set is described as follows: in vitro. As to conditions: for effect of inhibitor cocktail on apical-to-basal transport: ketoconazole 10 µM. The method, then: (§1) The seeding medium and culture medium of hiSIECs for LLI and ALI were obtained from FUJIFILM Corporation. hiSIECs were cultured according to the manufacturer’s instructions. Briefly, Fluid3D-X® devices were coated with Corning Matrigel GFR Basement Membrane Matrix (Corning) on the day before seeding the cells. hiSIECs were seeded onto a Fluid3D-X® device at 5.3 × 10^5 cells/MPS and incubated for 5.5 h. The seeding medium was added to the device, and cell culture was started in flow for 11 days at 20 pps 1/4 (3.8 µL/min). After one day, the seeding medium was replaced with LLI culture medium, and the medium was changed every two or three days. ALI culture was performed using the same method as the LLI culture, but the apical channel medium was removed to expose the cells to air on day 4. On day 11 after seeding, the gut MPS was used for the assay.
(§2) Eight gut chips were divided into two groups: with and without inhibitors. […] Because all steps were performed under static conditions, 200 µL of buffer was transferred from the outlet to the inlet by a micropipette before collection of each sample. Serial sampling (150 µL) was performed at following time points (0, 30, 60, 90, and 120 min) from both the donor and acceptor sides. Equal volumes of fresh buffer were added after the sample collection. At the end of the experiment (120 min), the cell lysates were collected. The concentrations of drugs and/or metabolites in the transport buffer and cells were measured by LC-MS/MS. To observe the inhibitory effects of the inhibitor on compound transport, transport experiments were performed in the presence of an inhibitor cocktail containing ketoconazole (10 µM), PSC833 (5 µM), and Ko143 (5 µM) to inhibit CYP3A4, P-gp, and BCRP.
(§3) The permeability, efflux ratio, and Fg parameters were derived as follows:
(§4) The apparent permeability coefficient (Papp, cm/s) was calculated using Eq. (1):1 [drawing 1]
(§5) where dQ/dt, MPS surface area, and C0 represent the amount of the test compound transported to the receiver compartment per unit time when the linearity of its time-dependent transport was
(§6) apparently maintained, the culture area of the gut MPS/Fluid3D-X (0.64 cm^2), and the
(§7) initial concentration of the test compound in the donor compartment.2 [drawing 2]
(§8) where Papp, basal to apical and Papp, apical to basal represent the apparent permeability coefficient in the
(§9) basolateral-to-apical and apical-to-basolateral directions, respectively.
(§10) The intestinal availability (Fg) of CYP3A substrates was calculated based on a previous report[35] using the following equation:3 [drawing 3]
(§11) where CLapical to basal (+ inhibitor) and CLapical to basal (-inhibitor) represent the transcellular transport clearance in the apical-to-basolateral direction in the presence or absence of the inhibitor, respectively.
(§12) The specimens were deproteinated with 3-times volumes of acetonitrile and centrifuged to obtain supernatants. For quantification of the drug concentration on the donor side, the specimens were further diluted 20 times with acetonitrile. Two microliters of each sample was subjected to LC–MS/MS analysis. An AB SCIEX QTRAP 5500 + mass spectrometer (Applied Biosystems, Foster City, CA) equipped with a Nexera X2 LC system (Shimadzu, Kyoto, Japan), operated in electron spray ionization mode, was used for the analysis. Chromatographic separation was performed at 40 °C on a GL Sciences Inc instrument. InertSustain C18 HP analytical column (2.1 I.D. × 100 mm, 3 μm) at a flow rate of 0.5 ml/min using the gradient method. The mobile phase consisted of 2 mmol/L ammonium acetate and 0.1% formic acid in water (mobile phase A) and 0.1% formic acid in acetonitrile (mobile phase B). […] The ion spray voltage and temperature were set at 4500 V and 600 °C, respectively.

A further data set can be described thus: in vitro. Particulars: human. How it is done:
as §1, §2, §3, §4, §5, §6, §7, §8, §9, §10, §11, §12

The conditions of data set [2]: in vivo, human; cited from earlier work.
Another data set has as its system hiSIECs. As to conditions: ref 20 (Shirai et al.); cited from earlier work.
Data set [3] deals with hiSIECs monolayers in gut MPS/Emulate. The data set is described as follows: Permeability / donor concentration of test drugs using gut MPS/Emulate (fluidic conditions).
Experimental: F-hiSIEC was thawed and suspended in seeding medium according to the manufacture’s protocol. The suspension of F-hiSIEC (6.0×10^6 cells/mL, 35-40 μL/chip) was transferred to the chip and incubated at 37 °C overnight. The cells were then cultured in maintenance medium under perfusion culture conditions at a flow rate of 15 μL/hr from day1 to day 4 and 30 μL/h from day 5 to day9. Gravity wash and prime cycle were performed when necessary. Additionally, the membrane strain rate was set to 2% at a frequency of 0.15 Hz from day 3 to day 5 and to 10% from day 6 to day 9. The permeability of the test drugs was assessed on day 9.
The test drugs were added to the culture medium. The top and bottom channels of the chip were perfused with the media at a flow rate of 30 μL/h. […] Inhibitors (10μM Ketoconazole, 5μM PSC833 and 5μM Ko143) were added as a cocktail to both the channels. Media were collected from the outlet chamber at 6, 24, 30, and 48 h.
The mark [4] stands for this setting: Papp, apical to basal, inhibitor (+).
[5] abbreviates: Papp, apical to basal, inhibitor (-).
Where [6] appears, read: Papp, basal to apical, inhibitor (-), no inhibitor, mean ± SD, n = 4, deuterium-labeled compound dosed to basal side, apical pH 6.5, basal pH 7.4.
The mark [7] stands for this setting: with ketoconazole 10 µM, PSC833 5 µM, Ko143 5 µM (both sides).

`OCc1ncc2n1-c1ccc(Cl)cc1C(c1ccccc1F)=NC2` [1-hydroxymidazolam]: the “secretion of metabolite to apical versus basal channel side” value in data set [1] (midazolam dosed apical) is listed as “preferentially secreted to the apical channel side”. In addition, the “formation of metabolite 1-hydroxymidazolam from midazolam in presence of inhibitors” value in data set [1] (midazolam dosed apical, inhibitor cocktail) was “decreased formation”.
Turning to `Cc1cc(=O)n(-c2ccccc2)n1C` [Antipyrine], in data set [1] (PSC833 5 µM, Ko143 5 µM), the “effect of inhibitor cocktail on apical-to-basal transport” value is reported as “not affected by the inhibitors”. The efflux ratio (commonly the permeability from basolateral to apical divided by that in the opposite direction, in the common usage) at 120 min turned out to be 0.78 ± 0.076 in the data set “in vitro” (Efflux ratio (ER), inhibitor (+)) and 0.656 ± 0.12 in the data set “in vitro” (Efflux ratio (ER), inhibitor (-)). In addition, the apparent permeability coefficient (Papp) – broadly, the rate of passage across a membrane or cell layer, normalised by area and donor concentration – at 120 min in “in vitro” (setting [4]) is 185 ± 12 nm/s; in the data set “in vitro” (setting [5]), 201 ± 27 nm/s; in “in vitro” (Papp, basal to apical, inhibitor (+)) it was 144 ± 7 nm/s; in the data set “in vitro” (Papp, basal to apical, inhibitor (-)) it was 132 ± 11 nm/s.
Take `Cc1ncc2n1-c1ccc(Cl)cc1C(c1ccccc1F)=NC2` [Midazolam]: in data set [2], the “Fg, clinical value” is given as 0.55. Besides, the “Fg reported by Shirai et al.” value in the data set with hiSIECs was 0.74. Moreover, the “fraction that escaped from the gut metabolism (Fg)” value in data set [1] (from ratio of apical-to-basal transport clearance with and without inhibitor) turned out to be 0.64. Moreover, the “effect of inhibitor cocktail on apical-to-basal transport” value in data set [1] (PSC833 5 µM, Ko143 5 µM) was “increased with the addition of inhibitors”. Moreover, the Papp at 120 min came to 144 ± 19 nm/s in the data set “in vitro” (Papp, apical to basal, inhibitor (+), inhibitor cocktail ketoconazole 10 µM, PSC833 5 µM, Ko143 5 µM, mean ± SD, n = 3) and 112 ± 6 nm/s in “in vitro” (Papp, apical to basal, inhibitor (-), no inhibitor, mean ± SD, n = 4, apical pH 6.5, basal pH 7.4). The “donor concentration relative to spiked concentration” value in data set [3] (presumably adsorption to the device) is reported as “almost half of the spiked concentration”.
In the case of `C=C[C@H]1C[N@@]2CC[C@H]1C[C@@H]2[C@@H](O)c1ccnc2ccc(OC)cc12` [Quinidine], the efflux ratio at 120 min in the data set “in vitro” worked out at 2.02 ± 0.37; in the data set “in vitro” (setting [7]) it was 1.12 ± 0.63. The Papp at 120 min came to 38.8 ± 11.2 nm/s in the data set “in vitro” (setting [4]), 21.5 ± 3.3 nm/s in the data set “in vitro” (setting [5]), 43.7 ± 1.5 nm/s in the data set “in vitro” (setting [6]) and 43.7 ± 15.3 nm/s in the data set “in vitro” (setting [7]). For the same molecule, in data set [3] (at 24 h), the “effluent concentration as percent of the corresponding inlet concentrations” value was determined as 82%. For the same molecule, the “reduction of concentration in the effluent relative to original drug solution” value in data set [3] (within the first 6 h) is 29%.
On to `O=C(O)c1cc(/N=N/c2ccc(S(=O)(=O)Nc3ccccn3)cc2)ccc1O` [Sulfasalazine], for which, in data set [1] (inhibitor cocktail ketoconazole 10 µM, PSC833 5 µM, Ko143 5 µM), the “decrease in intrinsic clearance (directional transport) in the presence of transporter inhibitors” value is reported as 85%. The efflux ratio at 120 min in “in vitro” came to 12.7 ± 2.3; in the data set “in vitro” (setting [7]), 1.97 ± 0.76. The Papp at 120 min in “in vitro” (setting [4]) stood at 5.57 ± 0.95 nm/s; in the data set “in vitro” (setting [5]) it was 5.05 ± 0.72 nm/s; in “in vitro” (setting [6]), 64.4 ± 4.5 nm/s; in the data set “in vitro” (setting [7]), 11 ± 2.9 nm/s.
